System: SM1 tumors
Test: Anti-PD-1 mouse model, SM1: tumor growth and flow cytometric profiling of tumors and draining lymph nodes (Table 2)
Format: in vivo, C57BL/6 mice
Excerpt: FIGS. 21A and 21B Administration of combination L-fucose and anti-PD-1 suppresses tumors and increases intra-tumoral CD4+T central and effector memory cells (a) Volumetric growth curves for SW1 tumors in C3H/HeN mice (left) and SM1 tumors in C57BL/6 mice (right) fed L-fucose (LF) and treated with PBS (control) or anti-PD-1. (concurrent initiation of LF anti-PD1 (▾)). The tumor growth curves are means±SEM from ≥7 mice per group. (b) Volumetric growth curves for SM1 tumors in C57BL/6 mice fed ±L-fucose (LF) and treated with PBS (control) or anti-PD-1 (PD-1). (concurrent initiation of LF±PD1 (▾)). The tumor growth curves are means±SEM from ≥7 mice per group. *=p<0.05. At Day 7 (prior to administration of LF or PD1), Day 21 (endpoint for tumors of control-treated mice), Day 31 (endpoint for tumors of LF-treated mice), Day 63 (endpoint for tumors of PD1-treated mice), the primary tumors (Tumor) and draining lymph nodes (LN) of 4-5 mice per treatment group were analyzed by flow cytometry for intratumor levels of CD4+ and CD8+T subpopulations (naive/terminal, stem central/central/effector memory) and dendritic cell (DC) subpopulations (cDC1, cDC2, and monocyte-derived DC (moDC)) as in FIG. 15. Proportions of CD4+, CD8+, and DC subpopulations in each organ at each timepoints are represented by the color-coded pie charts (each pie chart represents 4-5 mice). Absolute numbers of the subpopulations per […] of tumor/tissue homogenate at each timepoint are represented in the color-coded column charts.
Tumors of SW1 or SM1 melanoma cells from […] or C57BL/6 mice, respectively) were digested using 1× tumor digest buffer (0.5 mg/mL Collagenase I, 0.5 mg/mL Collagenase IV, 0.25 mg/mL Hyalyronidase V, 0.1 mg/mL DNAse I in HBSS (Millipore Sigma (St. Louis, MO)). Tumors were homogenized using the Miltenyi MACs dissociator. Red blood cells were lysed using ACK lysis buffer (Life Technologies, (Grand Island, NY)). Tumor homogenate cells were counted using a standard hemocytometer.
Total TILs were gated first to single cells (based on forward scatter height vs width, followed by side scatter height vs. width). Live cells were gated from the Zombie negative population from the population above. TILs were gated based on splenocyte size from a control spleen. Individual immune subpopulations were sub-gated from the total TIL population using the following staining criteria: CD3+ for CD3+ T cells; CD3+/CD4+/CD8− for CD4+T cells; CD3+/CD4−/CD8+ for CD8+ T cells, CD11c+/CD11b+ for DCs; either NK1.1 (for C57/BL6 mice) or DX5 (for C3H/HeJ) for NK cells; CD11b+/GR1+ for MDSC-like cells; and F4/80+ for macrophages. Single-cell suspensions from tumor and spleen tissue were stained with Live/Dead Zombie NIR (Biolegend, (San Diego, CA)) at 1:1,000 in PBS for 20 min. Cell suspensions were spun down and stained with the following with antibodies at 0.5 μg/ml per antibody: APC anti-mouse CD3, Pacific Blue anti-mouse CD4, BV785 anti-mouse CD8, PerCP anti-mouse CD25, FITC anti-mouse F4/80, PeCy7 anti-mouse CD11c, PE anti-mouse NK1.1 or PE anti-mouse DX5, and PerCP-Cy5.5 anti-mouse CD11 b. After staining, the cells were washed and fixed (2% formaldehyde), followed by another wash and flow cytometric analysis. The compensation controls were prepared using 0.5 μg/mL of each antibody with UltraComp eBeads, (ThermoFisher Scientific (Waltham, MA)). All samples were subject to flow cytometric profiling using a LSR Flow Cytometer (BD Biosciences (San Jose, CA)) and analysis as indicated using FlowJo software (BD Biosciences (San Jose, CA)).
SW1 or SM1 mouse melanoma cells were injected into syngeneic C3H/HeN female or C57BL/6 male mice, respectively. After approximately 7 days, when the mice tumors reached −150 mm^3, the mice were either supplemented with or without 100 mM L-fucose (Biosynth (Oak Terrace, IL)) via drinking water, which was provided ad libitum. […]

C[C@H](O)[C@@H](O)[C@@H](O)[C@H](O)C=O [L-fucose]
CD4 central memory, average # of cells (Day 21, lymph nodes): 592.12 per 10^6 cells of total tumor
CD4 effector memory, average # of cells (Day 21, lymph nodes): 1155.12 per 10^6 cells of total tumor
CD4 naïve, average # of cells (Day 21, lymph nodes): 24832.36 per 10^6 cells of total tumor
CD4 stem central memory, average # of cells (Day 21, lymph nodes): 512.17 per 10^6 cells of total tumor
CD8 central memory, average # of cells (Day 21, lymph nodes): 1017.54 per 10^6 cells of total tumor
CD8 effector memory, average # of cells (Day 21, lymph nodes): 4093.80 per 10^6 cells of total tumor
CD8 naïve, average # of cells (Day 21, lymph nodes): 11896.39 per 10^6 cells of total tumor
CD8 stem central memory, average # of cells (Day 21, lymph nodes): 192.89 per 10^6 cells of total tumor
cDC1, average # of cells (Day 21, lymph nodes): 9395.57 per 10^6 cells of total tumor
cDC2, average # of cells (Day 21, lymph nodes): 13997.11 per 10^6 cells of total tumor
moDC, average # of cells (Day 21, lymph nodes): 1788.45 per 10^6 cells of total tumor
CD4+ CRTAM+, average # of cells (Day 21, tumors): 361.60 per 10^6 cells of total tumor
CD4 central memory, average # of cells (Day 21, tumors): 19.50 per 10^6 cells of total tumor
CD4 effector memory, average # of cells (Day 21, tumors): 302.98 per 10^6 cells of total tumor
CD4 naïve, average # of cells (Day 21, tumors): 186.42 per 10^6 cells of total tumor
CD4 stem central memory, average # of cells (Day 21, tumors): 3.22 per 10^6 cells of total tumor
CD8+ GRZB+, average # of cells (Day 21, tumors): 14146.30 per 10^6 cells of total tumor
CD8 central memory, average # of cells (Day 21, tumors): 25.37 per 10^6 cells of total tumor
CD8 effector memory, average # of cells (Day 21, tumors): 889.74 per 10^6 cells of total tumor
CD8 naïve, average # of cells (Day 21, tumors): 81.09 per 10^6 cells of total tumor
CD8 stem central memory, average # of cells (Day 21, tumors): 1.53 per 10^6 cells of total tumor
cDC1, average # of cells (Day 21, tumors): 2032.24 per 10^6 cells of total tumor
cDC2, average # of cells (Day 21, tumors): 12762.45 per 10^6 cells of total tumor
moDC, average # of cells (Day 21, tumors): 570.99 per 10^6 cells of total tumor
CD4 central memory, average # of cells (Day 31, lymph nodes): 424.67 per 10^6 cells of total tumor
CD4 effector memory, average # of cells (Day 31, lymph nodes): 6638.79 per 10^6 cells of total tumor
CD4 naïve, average # of cells (Day 31, lymph nodes): 30715.03 per 10^6 cells of total tumor
CD4 stem central memory, average # of cells (Day 31, lymph nodes): 408.72 per 10^6 cells of total tumor
CD8 central memory, average # of cells (Day 31, lymph nodes): 286.54 per 10^6 cells of total tumor
CD8 effector memory, average # of cells (Day 31, lymph nodes): 2478.29 per 10^6 cells of total tumor
CD8 naïve, average # of cells (Day 31, lymph nodes): 12415.41 per 10^6 cells of total tumor
CD8 stem central memory, average # of cells (Day 31, lymph nodes): 56.84 per 10^6 cells of total tumor
cDC1, average # of cells (Day 31, lymph nodes): 5781.73 per 10^6 cells of total tumor
cDC2, average # of cells (Day 31, lymph nodes): 22628.85 per 10^6 cells of total tumor
moDC, average # of cells (Day 31, lymph nodes): 7315.56 per 10^6 cells of total tumor
CD4+ CRTAM+, average # of cells (Day 31, tumors): 112.92 per 10^6 cells of total tumor
CD4 central memory, average # of cells (Day 31, tumors): 28.68 per 10^6 cells of total tumor
CD4 effector memory, average # of cells (Day 31, tumors): 297.82 per 10^6 cells of total tumor
CD4 naïve, average # of cells (Day 31, tumors): 401.23 per 10^6 cells of total tumor
CD4 stem central memory, average # of cells (Day 31, tumors): 6.29 per 10^6 cells of total tumor
CD8+ GRZB+, average # of cells (Day 31, tumors): 5679.05 per 10^6 cells of total tumor
CD8 central memory, average # of cells (Day 31, tumors): 26.40 per 10^6 cells of total tumor
CD8 effector memory, average # of cells (Day 31, tumors): 202.98 per 10^6 cells of total tumor
CD8 naïve, average # of cells (Day 31, tumors): 223.96 per 10^6 cells of total tumor
CD8 stem central memory, average # of cells (Day 31, tumors): 3.15 per 10^6 cells of total tumor
cDC1, average # of cells (Day 31, tumors): 200.82 per 10^6 cells of total tumor
cDC2, average # of cells (Day 31, tumors): 5753.01 per 10^6 cells of total tumor
moDC, average # of cells (Day 31, tumors): 1107.62 per 10^6 cells of total tumor
intratumoral CD4+T central and effector memory cells (L-fuc alone (FIG. 21b)): increased
tumor suppression in combination with anti-PD1 (SM1 model): augmented durable suppression
tumor suppression, single agent (SM1 model (FIG. 21a right)): less tumor suppressive than anti-PD1 alone

— patent US20240197761A1, “FUCOSYLATION AND IMMUNE MODULATION IN CANCER” (H. LEE MOFFITT CANCER CENTER AND RESEARCH INSTITUTE, INC., priority 2021, published 2024)
